Measured values taken from ChEMBL document CHEMBL4828744, “Design, synthesis and biological evaluation of pyridinylmethylenepiperidine derivatives as potent 5-HT1F receptor agonists for migraine therapy” (Eur J Med Chem, 2021).
The source made the active and inactive calls. The calls are words filed in the database; no cut-off is given here.

Key:
[1] = Cmax in Sprague-Dawley rat at 5 mg/kg, ig measured for 24 hrs by LC-MS/MS analysis; assay type: ADME, organism-based; design: route intragastric, time 24 hrs, dose 5 mg/kg; details: in vivo, po
[2] = AUC(0 to t) in Sprague-Dawley rat at 1 mg/kg, iv measured for 24 hrs by LC-MS/MS analysis; assay type: ADME, organism-based; design: time 24 hrs, dose 1 mg/kg; details: in vivo
[3] = Half life in Sprague-Dawley rat at 1 mg/kg, iv measured for 24 hrs by LC-MS/MS analysis; assay type: ADME, organism-based; details: in vivo
[4] = Bioavailability in Sprague-Dawley rat at 5 mg/kg, ig measured for 24 hrs by LC-MS/MS analysis; assay type: ADME, organism-based; details: in vivo, po
Rattus norvegicus = test: Antimigraine activity against electrical stimulation of trigeminal ganglion migraine Wistar rat model assessed as reduction in c-Fos-positive cells at 10 ug/kg, po measured after 60 mins by confocal fluorescence microscopic analysis; assay type: functional, organism-based; details: dose 10.0 µg/kg
[5] = Cmax in Sprague-Dawley rat at 15 mg/kg, ig administered for 28 days by LC-MS/MS analysis; assay type: ADME, organism-based; design: route intragastric, dose 15 mg/kg, time 28 day; details: in vivo, po
[6] = Cmax in Sprague-Dawley rat at 50 mg/kg, ig administered for 28 days by LC-MS/MS analysis; assay type: ADME, organism-based; design: route intragastric, time 28 day, dose 50 mg/kg; details: in vivo, po
[7] = Cmax in monkey at 5 mg/kg, ig administered for 28 days by LC-MS/MS analysis; assay type: ADME, organism-based, Macaca mulatta; design: route intragastric, time 28 day, dose 5 mg/kg; details: rhesus monkey, in vivo, po
[8] = AUC (0 to 24hrs) in Sprague-Dawley rat at 50 mg/kg, ig by LC-MS/MS analysis; assay type: ADME, organism-based; design: time < 24 hr, route intragastric, dose 50 mg/kg; details: in vivo, po
[9] = AUC (0 to 24hrs) in Sprague-Dawley rat at 150 mg/kg, ig by LC-MS/MS analysis; assay type: ADME, organism-based; design: time < 24 hr, route intragastric, dose 150 mg/kg; details: in vivo, po
[10] = target: T1, 5-hydroxytryptamine receptor 1F (Homo sapiens, UniProt P30939); test: Binding affinity to human 5HT1F receptor
T1 sequence (P30939 whole entry): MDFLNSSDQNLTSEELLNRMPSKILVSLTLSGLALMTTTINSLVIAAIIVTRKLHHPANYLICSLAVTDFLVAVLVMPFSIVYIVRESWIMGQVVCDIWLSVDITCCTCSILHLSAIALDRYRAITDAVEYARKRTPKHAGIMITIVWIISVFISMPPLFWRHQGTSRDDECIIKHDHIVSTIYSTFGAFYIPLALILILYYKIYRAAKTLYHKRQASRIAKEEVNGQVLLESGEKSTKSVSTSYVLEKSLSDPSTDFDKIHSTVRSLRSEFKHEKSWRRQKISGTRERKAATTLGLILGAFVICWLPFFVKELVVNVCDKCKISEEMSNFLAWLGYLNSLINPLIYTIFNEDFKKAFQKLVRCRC

[11] = target: T2, 5-hydroxytryptamine receptor 1A (Homo sapiens, UniProt P08908); test: Binding affinity to human 5HT1A receptor
T2 sequence (P08908 whole entry): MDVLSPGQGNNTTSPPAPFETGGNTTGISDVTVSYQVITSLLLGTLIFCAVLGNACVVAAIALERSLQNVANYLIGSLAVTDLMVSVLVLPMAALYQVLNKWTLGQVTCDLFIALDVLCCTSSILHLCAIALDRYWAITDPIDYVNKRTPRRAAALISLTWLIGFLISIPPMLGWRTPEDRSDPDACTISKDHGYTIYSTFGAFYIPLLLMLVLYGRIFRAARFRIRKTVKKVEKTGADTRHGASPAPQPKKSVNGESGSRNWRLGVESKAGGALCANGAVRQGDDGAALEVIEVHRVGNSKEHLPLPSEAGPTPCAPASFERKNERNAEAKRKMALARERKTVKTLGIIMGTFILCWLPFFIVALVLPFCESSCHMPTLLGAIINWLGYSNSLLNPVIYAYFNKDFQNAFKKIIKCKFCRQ

[12] = target: 5-HT1B/5-HT1F (Homo sapiens) (UniProt P30939+P28222); test: Selectivity ratio of IC50 for human 5HT1B receptor to IC50 for human 5HT1F receptor; assay type: protein assay
Homo sapiens = organism: Homo sapiens; test: Selectivity ratio of IC50 for human 5HT3 receptor to IC50 for human 5HT1F receptor
[13] = target: T3, 5-hydroxytryptamine receptor 1F (Homo sapiens) (UniProt P30939); test: Potency index, ratio of lasmiditan EC50 to test compound EC50 for agonist activity at 5HT1F receptor (unknown origin) expressed in HEK293 cells measured after 60 mins by Fluo-4AM dye based FLIPR assay; assay type: functional, cell-based
T3 sequence (whole entry): T1 sequence (P30939 whole entry)

[14] = Toxicity in Sprague-Dawley rat assessed as effect on inflammatory reaction at 150 mg/kg/day, ig administered for 28 days; assay type: organism-based; details: in vivo, po, 672 h, time 28 day
[15] = Toxicity in ig dosed monkey administered for 28 days; assay type: organism-based, Macaca mulatta; details: rhesus monkey, in vivo, po; time 28 day

Sequence of 5-HT1B/5-HT1F (Homo sapiens) (P28222 whole entry, looked up, one chain of several): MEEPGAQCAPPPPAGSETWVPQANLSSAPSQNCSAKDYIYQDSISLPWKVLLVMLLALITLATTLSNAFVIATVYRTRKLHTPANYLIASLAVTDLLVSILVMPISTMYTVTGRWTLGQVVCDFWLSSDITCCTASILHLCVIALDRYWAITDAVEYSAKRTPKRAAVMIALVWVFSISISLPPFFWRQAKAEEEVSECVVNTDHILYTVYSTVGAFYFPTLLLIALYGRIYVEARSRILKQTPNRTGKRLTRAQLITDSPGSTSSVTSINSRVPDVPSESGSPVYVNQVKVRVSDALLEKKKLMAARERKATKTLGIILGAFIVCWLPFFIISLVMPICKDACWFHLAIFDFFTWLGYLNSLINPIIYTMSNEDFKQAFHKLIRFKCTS

- Cmax [1]: 88 ng/mL
- AUC(0-t) at 24 h [2]: 128 ng·h/mL
- half-life [3]: 1.33 h
- bioavailability [4]: 64%
- Cmax [5]: 160 ng/mL
- Cmax [6]: 523 ng/mL
- Cmax [7]: 3410 ng/mL
- AUC(0-t) at 24 h [8]: 5290 ng·h/mL
- AUC(0-t) at 24 h [9]: 10200 ng·h/mL
- IC50 [10]: 0.32 nM
- IC50 [11]: 151 nM
- Ratio IC50 [12]: > 10000
- Ratio IC50 (Homo sapiens): > 10000
- Ratio EC50 [13]: 4
SMILES: CN1CCC(=C(F)c2cccc(NC(=O)c3c(F)cc(F)cc3F)n2)CC1
- Activity (Rattus norvegicus): Active
- Activity [14]: Non-Toxic
- NOAEL at 672 h [15]: 5 mg/kg/day
